Laboratory results published in ChEMBL document CHEMBL3351491, “Synthesis and preliminary biological evaluation of potent and selective 2-(3-alkoxy-1-azetidinyl) quinolines as novel PDE10A inhibitors with improved solubility” (Bioorg Med Chem, 2014).

How the values were obtained:
Format in all cases: ADME, organism-based
[1] = Volume of distribution at steady state in Sprague-Dawley rat at 2 mg/kg, iv; set-up: dose 2 mg/kg, route intravenous; details: in vivo, read-out: Vdss
[2] = Oral bioavailability in Sprague-Dawley rat at 10 mg/kg; details: in vivo
[3] = Clearance in Sprague-Dawley rat; details: in vivo
[4] = Half life in Sprague-Dawley rat at 2 mg/kg, iv; set-up: dose 2 mg/kg, route intravenous; details: in vivo
[5] = AUC (0 to infinity) in Sprague-Dawley rat at 10 mg/kg, po; set-up: time infinity, dose 10 mg/kg, route oral; details: plasma

Row | SMILES | Vd [1] [L/kg] | bioavailability [2] [%] | clearance [3] [mL/min/kg] | half-life [4] [min] | AUC(0-inf) [5] [ng·h/mL]
1 | OCC1CCN(c2nccnc2OC2CN(c3ccc4ccccc4n3)C2)CC1 | 4.81 | 18 | 61.3 | 385 | –
2 | CC(=O)N1CCC(c2nccnc2OC2CN(c3ccc4ccccc4n3)C2)CC1 | 1.55 | 62 | 16 | 218 | 17.4
3 | CC(=O)N1CCC(c2nc3ccccc3nc2OC2CN(c3ccc4ccccc4n3)C2)CC1 | 1.55 | 57 | 9.5 | 141 | 27.9
